In ChEMBL document CHEMBL5291721, “A preclinical secondary pharmacology resource illuminates target-adverse drug reaction associations of marketed drugs” (Nat Commun, 2023):

Tests used:
Endothelin-1 receptor = target: T1, Endothelin-1 receptor (Homo sapiens, UniProt P25101)
T1 sequence (P25101 whole entry): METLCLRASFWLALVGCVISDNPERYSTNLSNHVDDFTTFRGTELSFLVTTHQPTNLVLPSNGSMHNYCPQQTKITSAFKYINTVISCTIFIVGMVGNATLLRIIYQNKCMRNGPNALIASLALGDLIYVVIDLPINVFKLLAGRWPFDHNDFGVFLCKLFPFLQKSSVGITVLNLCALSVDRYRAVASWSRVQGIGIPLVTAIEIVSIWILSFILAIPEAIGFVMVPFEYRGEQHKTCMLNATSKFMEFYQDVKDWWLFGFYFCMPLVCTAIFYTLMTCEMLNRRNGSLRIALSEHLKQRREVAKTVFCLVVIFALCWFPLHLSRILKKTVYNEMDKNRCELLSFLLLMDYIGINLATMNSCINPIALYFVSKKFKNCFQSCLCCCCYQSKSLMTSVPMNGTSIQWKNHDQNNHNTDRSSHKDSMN

Histamine H1 receptor = Histamine H1 receptor (Homo sapiens, UniProt P35367)
Chain of Histamine H1 receptor (P35367 whole entry): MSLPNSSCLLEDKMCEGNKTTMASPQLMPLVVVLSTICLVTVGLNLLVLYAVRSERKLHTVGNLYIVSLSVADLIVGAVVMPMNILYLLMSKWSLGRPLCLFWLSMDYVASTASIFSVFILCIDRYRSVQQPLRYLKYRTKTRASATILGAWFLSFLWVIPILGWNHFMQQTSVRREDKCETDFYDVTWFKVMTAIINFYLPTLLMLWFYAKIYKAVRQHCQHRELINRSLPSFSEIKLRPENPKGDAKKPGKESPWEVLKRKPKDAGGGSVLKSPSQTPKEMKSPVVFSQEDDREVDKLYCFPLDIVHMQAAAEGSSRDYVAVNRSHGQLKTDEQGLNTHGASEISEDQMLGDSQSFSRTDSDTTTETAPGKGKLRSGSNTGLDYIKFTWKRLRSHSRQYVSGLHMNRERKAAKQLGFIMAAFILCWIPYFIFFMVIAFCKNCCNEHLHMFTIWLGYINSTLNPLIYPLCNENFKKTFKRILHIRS

[1] = target: Muscarinic acetylcholine receptor M3 (Homo sapiens, UniProt P20309)
Chain of Muscarinic acetylcholine receptor M3 (P20309 whole entry): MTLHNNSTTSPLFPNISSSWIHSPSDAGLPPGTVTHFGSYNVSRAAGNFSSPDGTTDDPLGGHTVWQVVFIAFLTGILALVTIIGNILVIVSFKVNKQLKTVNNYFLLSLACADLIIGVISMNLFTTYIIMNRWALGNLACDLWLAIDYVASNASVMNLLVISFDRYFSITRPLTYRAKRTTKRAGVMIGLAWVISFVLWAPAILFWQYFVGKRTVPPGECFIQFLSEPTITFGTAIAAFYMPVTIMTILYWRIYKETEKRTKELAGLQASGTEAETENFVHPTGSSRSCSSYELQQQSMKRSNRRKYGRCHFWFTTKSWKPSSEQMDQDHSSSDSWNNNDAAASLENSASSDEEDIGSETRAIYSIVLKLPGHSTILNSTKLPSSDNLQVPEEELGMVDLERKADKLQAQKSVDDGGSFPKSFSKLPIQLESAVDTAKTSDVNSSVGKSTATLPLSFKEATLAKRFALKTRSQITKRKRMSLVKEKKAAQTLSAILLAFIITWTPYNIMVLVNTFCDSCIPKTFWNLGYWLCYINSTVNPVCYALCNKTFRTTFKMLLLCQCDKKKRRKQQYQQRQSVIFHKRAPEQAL

[2] = target: Sodium channel protein type 5 subunit alpha (Homo sapiens, UniProt Q14524); assay type: functional, cell-based
Chain of Sodium channel protein type 5 subunit alpha (Q14524 whole entry): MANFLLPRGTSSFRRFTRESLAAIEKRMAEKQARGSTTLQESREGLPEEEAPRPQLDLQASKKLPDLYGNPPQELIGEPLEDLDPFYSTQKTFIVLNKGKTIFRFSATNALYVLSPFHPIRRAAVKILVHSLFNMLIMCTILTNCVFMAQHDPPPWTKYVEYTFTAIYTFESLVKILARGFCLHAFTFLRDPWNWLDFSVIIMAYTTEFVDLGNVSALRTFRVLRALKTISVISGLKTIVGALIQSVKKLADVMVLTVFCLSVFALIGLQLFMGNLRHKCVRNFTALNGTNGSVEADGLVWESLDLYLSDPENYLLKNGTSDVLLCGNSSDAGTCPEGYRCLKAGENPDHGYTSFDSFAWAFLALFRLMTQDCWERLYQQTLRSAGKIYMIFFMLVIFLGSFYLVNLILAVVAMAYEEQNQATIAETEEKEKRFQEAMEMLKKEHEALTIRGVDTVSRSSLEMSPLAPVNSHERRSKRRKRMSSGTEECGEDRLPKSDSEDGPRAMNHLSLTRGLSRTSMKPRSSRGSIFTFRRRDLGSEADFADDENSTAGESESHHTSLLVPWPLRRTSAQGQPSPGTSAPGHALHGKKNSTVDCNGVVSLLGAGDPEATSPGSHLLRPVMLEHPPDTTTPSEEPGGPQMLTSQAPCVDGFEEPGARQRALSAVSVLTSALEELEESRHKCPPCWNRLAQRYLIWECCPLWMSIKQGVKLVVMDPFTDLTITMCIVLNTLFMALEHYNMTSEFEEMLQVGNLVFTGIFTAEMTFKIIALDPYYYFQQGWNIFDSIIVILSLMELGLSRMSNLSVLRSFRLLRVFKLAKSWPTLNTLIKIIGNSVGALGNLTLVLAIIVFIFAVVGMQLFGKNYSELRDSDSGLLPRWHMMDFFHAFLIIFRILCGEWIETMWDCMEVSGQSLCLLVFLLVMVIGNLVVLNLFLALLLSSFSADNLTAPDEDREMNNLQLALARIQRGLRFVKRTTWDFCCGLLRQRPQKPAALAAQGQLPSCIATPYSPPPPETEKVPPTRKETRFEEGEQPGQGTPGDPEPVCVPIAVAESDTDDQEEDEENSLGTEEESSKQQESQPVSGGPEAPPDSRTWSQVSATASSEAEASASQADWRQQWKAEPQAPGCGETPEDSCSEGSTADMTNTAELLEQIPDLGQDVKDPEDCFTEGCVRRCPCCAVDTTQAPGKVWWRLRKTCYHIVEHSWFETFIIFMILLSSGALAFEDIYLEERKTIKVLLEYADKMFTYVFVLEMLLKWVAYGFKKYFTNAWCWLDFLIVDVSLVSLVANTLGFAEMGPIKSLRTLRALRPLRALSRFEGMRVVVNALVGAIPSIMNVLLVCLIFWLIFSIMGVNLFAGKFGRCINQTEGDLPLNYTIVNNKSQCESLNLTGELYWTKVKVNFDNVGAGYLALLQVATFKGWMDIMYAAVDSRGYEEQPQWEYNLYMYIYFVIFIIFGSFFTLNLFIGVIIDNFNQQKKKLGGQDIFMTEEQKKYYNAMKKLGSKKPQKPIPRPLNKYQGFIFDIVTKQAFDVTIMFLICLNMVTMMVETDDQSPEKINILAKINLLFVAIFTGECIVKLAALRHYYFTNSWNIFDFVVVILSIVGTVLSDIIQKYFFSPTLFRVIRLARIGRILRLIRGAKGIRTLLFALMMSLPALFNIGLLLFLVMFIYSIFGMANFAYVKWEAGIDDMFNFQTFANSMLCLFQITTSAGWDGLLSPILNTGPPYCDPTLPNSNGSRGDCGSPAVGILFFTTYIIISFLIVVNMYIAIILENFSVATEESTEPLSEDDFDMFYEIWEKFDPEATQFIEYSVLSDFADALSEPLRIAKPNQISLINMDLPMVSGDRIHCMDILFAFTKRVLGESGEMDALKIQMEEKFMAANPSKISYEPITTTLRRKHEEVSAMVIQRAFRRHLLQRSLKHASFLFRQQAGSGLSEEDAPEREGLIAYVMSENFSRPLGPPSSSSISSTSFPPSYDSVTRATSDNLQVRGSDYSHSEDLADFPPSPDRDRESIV

[3] = target: T2, Muscarinic acetylcholine receptor M1 (Homo sapiens, UniProt P11229); assay type: functional
T2 sequence (P11229 whole entry): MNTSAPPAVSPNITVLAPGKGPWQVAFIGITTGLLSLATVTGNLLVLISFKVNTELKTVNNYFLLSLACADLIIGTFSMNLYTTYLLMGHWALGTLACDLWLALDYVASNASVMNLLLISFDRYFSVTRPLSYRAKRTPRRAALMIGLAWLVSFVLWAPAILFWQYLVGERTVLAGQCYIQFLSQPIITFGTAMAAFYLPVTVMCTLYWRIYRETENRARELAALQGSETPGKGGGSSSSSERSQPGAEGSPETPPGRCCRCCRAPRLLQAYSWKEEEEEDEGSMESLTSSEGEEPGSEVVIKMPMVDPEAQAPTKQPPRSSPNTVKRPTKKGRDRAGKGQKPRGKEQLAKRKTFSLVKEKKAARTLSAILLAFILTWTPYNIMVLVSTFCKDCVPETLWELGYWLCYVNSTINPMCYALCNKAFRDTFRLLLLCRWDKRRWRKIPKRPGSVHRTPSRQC

[4] = target: 5-hydroxytryptamine receptor 2A (Homo sapiens, UniProt P28223); assay type: functional, cell-based
Chain of 5-hydroxytryptamine receptor 2A (P28223 whole entry): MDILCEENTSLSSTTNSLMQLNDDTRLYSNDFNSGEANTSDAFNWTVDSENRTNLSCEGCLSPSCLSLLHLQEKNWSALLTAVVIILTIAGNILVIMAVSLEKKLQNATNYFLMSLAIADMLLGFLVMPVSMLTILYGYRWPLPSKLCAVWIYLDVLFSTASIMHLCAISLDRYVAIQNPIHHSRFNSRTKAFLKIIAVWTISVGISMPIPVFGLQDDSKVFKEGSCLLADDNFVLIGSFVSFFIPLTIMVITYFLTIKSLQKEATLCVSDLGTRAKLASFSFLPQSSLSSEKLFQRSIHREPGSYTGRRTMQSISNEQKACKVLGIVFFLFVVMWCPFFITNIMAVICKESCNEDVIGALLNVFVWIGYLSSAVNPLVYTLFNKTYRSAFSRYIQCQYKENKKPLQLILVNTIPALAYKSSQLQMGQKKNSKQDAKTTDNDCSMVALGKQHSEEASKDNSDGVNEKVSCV

[5] = target: T3, 5-hydroxytryptamine receptor 1A (Homo sapiens, UniProt P08908)
T3 sequence (P08908 whole entry): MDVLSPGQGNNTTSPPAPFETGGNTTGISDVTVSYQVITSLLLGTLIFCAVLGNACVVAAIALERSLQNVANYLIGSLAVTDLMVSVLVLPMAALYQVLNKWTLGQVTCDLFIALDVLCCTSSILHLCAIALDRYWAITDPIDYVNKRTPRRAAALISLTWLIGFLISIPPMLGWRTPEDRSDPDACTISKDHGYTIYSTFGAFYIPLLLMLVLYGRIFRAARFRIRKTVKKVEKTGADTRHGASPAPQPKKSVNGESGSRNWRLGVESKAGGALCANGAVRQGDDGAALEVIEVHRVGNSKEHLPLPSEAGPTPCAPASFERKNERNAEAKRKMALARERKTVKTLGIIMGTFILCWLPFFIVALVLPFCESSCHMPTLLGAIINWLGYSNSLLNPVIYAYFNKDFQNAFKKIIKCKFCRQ

[6] = target: T4, Neuropeptide Y receptor type 2 (Homo sapiens, UniProt P49146)
T4 sequence (P49146 whole entry): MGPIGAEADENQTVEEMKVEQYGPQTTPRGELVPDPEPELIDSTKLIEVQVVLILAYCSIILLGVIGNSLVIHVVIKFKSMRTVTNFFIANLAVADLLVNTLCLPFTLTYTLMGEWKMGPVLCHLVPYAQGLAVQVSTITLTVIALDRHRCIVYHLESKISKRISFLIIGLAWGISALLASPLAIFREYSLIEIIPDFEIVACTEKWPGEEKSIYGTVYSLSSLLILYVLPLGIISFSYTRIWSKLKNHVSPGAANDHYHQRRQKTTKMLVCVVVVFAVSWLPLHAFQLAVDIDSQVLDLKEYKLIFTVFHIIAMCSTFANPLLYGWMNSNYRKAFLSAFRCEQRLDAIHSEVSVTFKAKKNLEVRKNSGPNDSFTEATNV

Adenosine receptor A1 = target: T5, Adenosine receptor A1 (Homo sapiens, UniProt P30542)
T5 sequence (P30542 whole entry): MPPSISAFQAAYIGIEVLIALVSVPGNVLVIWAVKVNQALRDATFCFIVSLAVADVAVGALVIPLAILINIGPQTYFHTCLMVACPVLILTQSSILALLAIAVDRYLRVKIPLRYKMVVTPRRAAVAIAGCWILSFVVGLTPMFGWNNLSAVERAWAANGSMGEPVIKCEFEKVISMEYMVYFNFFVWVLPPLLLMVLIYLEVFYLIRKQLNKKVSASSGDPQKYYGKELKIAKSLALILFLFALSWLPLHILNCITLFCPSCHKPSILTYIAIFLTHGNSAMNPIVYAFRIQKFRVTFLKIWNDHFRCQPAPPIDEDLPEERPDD

[7] = target: Gamma-aminobutyric acid receptor subunit alpha-1/alpha-2/beta-2/gamma-2 (Homo sapiens, UniProt P14867+P18507+P47869+P47870); assay type: protein-complex assay
Further: assay procedure not described here.

CN(C)C/C=C/C(=O)Nc1cc2c(Nc3ccc(F)c(Cl)c3)ncnc2cc1O[C@H]1CCOC1 [AFATINIB]
AC50 (Endothelin-1 receptor): > 30 µM
AC50 (Histamine H1 receptor): > 30 µM
AC50 [1]: > 30 µM
AC50 [2]: > 50 µM
AC50 [3]: > 30 µM
AC50 [4]: > 30 µM

CC1=C(C(=O)OC(C)C)C(c2cccc([N+](=O)[O-])c2)C(C(=O)OC2CN(C(c3ccccc3)c3ccccc3)C2)=C(N)N1 (stereo not given) [AZELNIDIPINE]
AC50 (Endothelin-1 receptor): > 30 µM
AC50 (Histamine H1 receptor): > 30 µM
AC50 [1]: > 30 µM
AC50 [2]: > 50 µM
AC50 [3]: > 30 µM
AC50 [4]: > 30 µM

O=C(/C=C/c1cccc(S(=O)(=O)Nc2ccccc2)c1)NO [BELINOSTAT]
AC50 (Endothelin-1 receptor): > 10 µM
AC50 (Histamine H1 receptor): > 10 µM
AC50 [5]: > 10 µM
AC50 [6]: > 10 µM
AC50 [1]: > 30 µM
AC50 [3]: > 10 µM
AC50 (Adenosine receptor A1): > 30 µM

CC(O)(CS(=O)(=O)c1ccc(F)cc1)C(=O)Nc1ccc(C#N)c(C(F)(F)F)c1 (stereo not given) [BICALUTAMIDE]
AC50 (Endothelin-1 receptor): > 30 µM
AC50 [5]: > 10 µM
AC50 [6]: > 30 µM
AC50 [2]: > 30 µM
AC50 (Adenosine receptor A1): > 30 µM

O=C(O)COCCN1CCN(C(c2ccccc2)c2ccc(Cl)cc2)CC1 (stereo not given) [CETIRIZINE]
AC50 (Endothelin-1 receptor): > 30 µM
AC50 [5]: > 10 µM
AC50 [6]: > 30 µM
AC50 [1]: > 10 µM
AC50 [2]: > 30 µM

C[C@H](CCC(=O)O)[C@H]1CC[C@H]2[C@@H]3[C@H](O)C[C@@H]4C[C@H](O)CC[C@]4(C)[C@H]3C[C@H](O)[C@]12C [CHOLIC ACID]
AC50 [7]: > 30 µM
AC50 [2]: > 50 µM

CC(=O)O[C@]1(C(C)=O)CC[C@H]2[C@@H]3C=C(Cl)C4=CC(=O)[C@@H]5C[C@@H]5[C@]4(C)[C@H]3CC[C@@]21C [CYPROTERONE ACETATE]
AC50 [5]: > 10 µM
AC50 (Adenosine receptor A1): > 30 µM

C[C@@H]1C[C@H]2[C@@H]3C[C@H](F)C4=CC(=O)C=C[C@]4(C)[C@@]3(F)[C@@H](O)C[C@]2(C)[C@@]1(OC(=O)c1ccco1)C(=O)SCF [FLUTICASONE FUROATE]
AC50 (Endothelin-1 receptor): > 10 µM
AC50 (Histamine H1 receptor): > 10 µM
AC50 [5]: > 10 µM
AC50 [6]: > 10 µM
AC50 [1]: > 30 µM
AC50 [3]: > 10 µM
AC50 (Adenosine receptor A1): > 30 µM

CCOC(=O)C1=C(C)NC(C)=C(C(=O)OCC)C1c1ccccc1/C=C/C(=O)OC(C)(C)C [LACIDIPINE]
AC50 (Endothelin-1 receptor): > 30 µM
AC50 [2]: > 50 µM

Cc1cccc(C)c1NC(=O)CC12CCCN1CCC2 [PILSICAINIDE]
AC50 (Endothelin-1 receptor): > 30 µM
AC50 (Histamine H1 receptor): > 30 µM
AC50 [1]: > 30 µM
AC50 [2]: > 50 µM
AC50 [3]: > 30 µM
AC50 [4]: > 30 µM

COc1cc(C)c2c(Oc3cccc(C(F)(F)F)c3)c(OC)cc(NC(C)CCCN)c2n1 (stereo not given) [TAFENOQUINE]
AC50 (Adenosine receptor A1): > 30 µM

O=S1(=O)CCN(CN2CCS(=O)(=O)NC2)CN1 [TAUROLIDINE]
AC50 (Histamine H1 receptor): 4.6 µM
AC50 [1]: > 30 µM
AC50 [3]: > 30 µM
AC50 [4]: > 30 µM
AC50 (Adenosine receptor A1): > 30 µM

COc1ccc2c(C(=S)N(C)CC(=O)O)cccc2c1C(F)(F)F [TOLRESTAT]
AC50 (Adenosine receptor A1): > 30 µM
